Read-outs that look alike come from different tables or passages of the source.
How the values were obtained:
[1] = molecular target: T1, D2 (CHO-K1/D2L/Gα15 cells) (Homo sapiens, UniProt P14416); test: Functional activity test on receptor (cryopreservation cells), calcium FLIPR, D2; format: cell-based; conditions: for IC50: cryopreserved CHO-K1/D2L/Gα15 cells, calcium fluorescence (FLIPR), antagonist mode vs dopamine EC80; for D2/5-HT2A ratio: ratio of D2 IC50 to 5-HT2A IC50, Test Example 1
T1 construct: expressed in transfected cells; host or cells: CHO-K1 (CHO-K1/D2L/Gα15, cryopreserved cells)
T1 sequence (P14416 whole entry): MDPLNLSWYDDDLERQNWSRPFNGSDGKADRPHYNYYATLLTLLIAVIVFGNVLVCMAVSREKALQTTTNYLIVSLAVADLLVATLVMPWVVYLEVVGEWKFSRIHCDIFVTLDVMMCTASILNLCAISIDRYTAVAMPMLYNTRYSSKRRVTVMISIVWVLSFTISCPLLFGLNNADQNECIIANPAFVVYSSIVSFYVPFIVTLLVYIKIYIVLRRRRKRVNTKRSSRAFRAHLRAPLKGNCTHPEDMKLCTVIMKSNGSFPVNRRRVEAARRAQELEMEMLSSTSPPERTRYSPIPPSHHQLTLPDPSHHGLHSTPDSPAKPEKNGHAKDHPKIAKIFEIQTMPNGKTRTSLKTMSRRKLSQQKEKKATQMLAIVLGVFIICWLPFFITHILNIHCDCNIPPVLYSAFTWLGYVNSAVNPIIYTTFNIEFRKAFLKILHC
Experimental: Test Example 1: Functional Activity Test of Each Compound on Receptor (Cryopreservation Cells) [table] • (1) Cells was taken out from a liquid nitrogen tank, and the tube cap was loosened and inverted to make the liquid nitrogen flow out of the tube, then the cryopreservation tube was tightened. • (2) The cryopreservation tube was shaken rapidly at 37° C. […] • (1) Preparation of 250 mM probenecid solution: 1 mL experimental buffer was added into a tube containing 77 mg powder, and the powder was dissolved by vortex oscillation. • (2) Preparation of 2× fluorescent probe solution: A bottle of fluorescent probe dry powder was taken out to balance to room temperature, and 10 mL of experimental buffer solution and 200 μL of 250 mM probenecid solution were added thereto, and the bottle was scrolled and let stand for 5 minutes to ensure complete dissolution, and then the bottle was scrolled again. • a) Preparation of agonist compound plate (test of EC80): […] The compound to be tested was diluted 3-fold at 10 concentration points using experimental buffer in the compound plate (Greiner-781280), with an initial concentration of 3 μM and 30 μL per well; the antagonistic positive compounds (Spiperone and Ketanserin) were diluted 3-fold at 10 concentration points using experimental buffer, with an initial concentration of 1 μM and 30 μL per well. DMSO concentration was not higher than 3%. • (2) Cell preparation: Cells was taken out from the incubator, and 20 μL of prepared 2× fluorescent probe solution was added thereto, incubated at 37° C. for 50 minutes, then equilibrated at room temperature for 10 minutes. • a) The cell plate and agonist compound plate were put into the instrument, and the program of reading the plate was run. • b) 10 μL was transferred from the agonist compound plate to the cell plate, and fluorescence signal was read. • c) The EC80 of agonist was calculated using Screenworks software and 6×EC80 concentration was prepared for later use.

[2] = molecular target: T2, 5-HT2A (CHO-K1/5HT2A cells) (Homo sapiens, UniProt P28223); test: Functional activity test on receptor (cryopreservation cells), calcium FLIPR, 5-HT2A; format: cell-based
T2 construct: expressed in transfected cells; host or cells: CHO-K1 (CHO-K1/5HT2A, cryopreserved cells)
T2 sequence (P28223 whole entry): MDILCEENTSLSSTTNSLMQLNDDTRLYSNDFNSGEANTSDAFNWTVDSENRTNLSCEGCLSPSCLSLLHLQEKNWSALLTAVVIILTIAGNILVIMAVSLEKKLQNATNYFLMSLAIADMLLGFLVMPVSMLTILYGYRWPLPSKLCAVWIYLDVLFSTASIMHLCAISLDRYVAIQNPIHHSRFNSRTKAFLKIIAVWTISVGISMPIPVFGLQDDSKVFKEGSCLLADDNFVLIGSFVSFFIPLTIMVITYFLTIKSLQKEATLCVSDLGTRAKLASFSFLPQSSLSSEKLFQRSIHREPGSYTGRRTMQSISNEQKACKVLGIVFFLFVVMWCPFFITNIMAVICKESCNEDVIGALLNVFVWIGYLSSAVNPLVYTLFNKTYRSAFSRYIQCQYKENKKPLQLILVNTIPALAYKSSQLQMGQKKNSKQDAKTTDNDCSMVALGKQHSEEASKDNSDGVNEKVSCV
Experimental: • (1) Cells was taken out from a liquid nitrogen tank, and the tube cap was loosened and inverted to make the liquid nitrogen flow out of the tube, then the cryopreservation tube was tightened. • (2) The cryopreservation tube was shaken rapidly at 37° C. […] 20 μL cell suspension was taken out and counted by cell counter. • (6) Dilution according to the specified conditions: 1×10^6 cells /mL, 20 μL cell suspension was added into each well of the cell plate, and finally the concentration of each well is 20,000 cells/well sequentially. • (7) The cell plate was cultured in an incubator with 5% CO2 and at 37° C. for 16-24 hours. […]
• a) The cell plate and agonist compound plate were put into the instrument, and the program of reading the plate was run. • b) 10 μL was transferred from the agonist compound plate to the cell plate, and fluorescence signal was read. • c) The EC80 of agonist was calculated using Screenworks software and 6×EC80 concentration was prepared for later use. […]

[3] = molecular target: T3, 5-HT2A receptor (Homo sapiens, UniProt P28223); test: Functional detection experiment of 5-HT2A receptor (cultured cells), calcium influx assay; format: cell-based
T3 construct: expressed in transfected cells
T3 sequence (P28223 whole entry): as above
Text: The antagonistic effect of the compound of the present disclosure on the 5-HT2A receptor was detected by a calcium influx assay at the cellular level.
• (1) Test compounds: compounds of the embodiments of the present disclosure, self-made. • (2) Control compound: serotonin hydrochloride 5-hydroxytryptamine (Sigma, H9523), Ketanserin (Targetmol, T1066). • (3) Stable cell line:
• (1) Preparation of test compounds: the compounds of the embodiments of the present disclosure were respectively dissolved in DMSO to prepare 10 mM mother liquor, and the mother liquor was stored in the nitrogen cabinet for later use. • (2) Preparation of control compound: the control compound was dissolved in DMSO to prepare 10 mM mother liquor, and the mother liquor was repackaged and stored in the refrigerator at -80° C. for later use. • (3) Preparation of 250 mM probenecid solution: 1 mL experimental buffer was added into a tube containing 77 mg powder, and the powder was dissolved by vortex oscillation. • (4) Preparation of 2× fluorescent probe solution: a bottle of fluorescent probe dry powder was taken out to balance to room temperature, and 10 mL of experimental buffer solution and 200 μL of 250 mM probenecid solution were added thereto, and the mixture was scrolled and let stand for 5 minutes to ensure complete dissolution. • (5) Experimental buffer HBSS: HBSS and HEPES were mixed evenly in a ratio of 50:1, stored in a refrigerator at 4° C., and heated at 37° C. when used.
• (1) Cells were taken out from the liquid nitrogen tank and melted in a water bath at 37° C. The surface of the cryopreservation tube was wiped with 75% alcohol and put in the biosafety cabinet. • (2) The cell suspension was transferred to a 15 mL centrifuge tube with 4 mL preheated plating medium, and the tube was centrifuged at 1000 rpm for 5 minutes. • (3) The supernatant was discarded, and 10 mL of plating medium was added and blown gently, and the mixture was transferred to a culture dish for growth. After the cells had adhered to the wall for 24 hours, they were replaced with growth medium for continuous culture.
• (1) The logarithmic growth cells was taken and the cells grew to about 85%-90%. The cells were performed the following operations: cell cleaning, digestion, termination, then transferred to a 15 mL centrifuge tube, and the tube was centrifuged at room temperature at 1000 rpm for 5 minutes. • (2) The supernatant was discarded, and a certain plating medium was added and blown gently. 20 μL of cell suspension was taken out and counted. • (3) Cells were diluted to 1×10^6 cells/mL and 20 μL of cell suspension was added to each well of the cell plate (Greiner-781946), so that the density of each well is 2×10^4 cells/well. • (4) The cell plate was incubated in an incubator with 5% CO2 at 37° C. for 16-24 hours. […]

[4] = PK test on ICR mice; format: in vivo; conditions: mouse; male ICR mice, oral gavage, 5 mg/kg single dose, plasma
Experimental: Male ICR mice were administered by oral gavage administration, and blood concentration of the compound of the present disclosure in mice was measured, and PK parameters were calculated, and the pharmacokinetics of the compound of the present disclosure was evaluated.
Preparation of drug: The test compound was taken, and physiological saline was added, and ultrasonication was performed.
Administration route and dosage: administered by oral gavage, administration dosage: 5 mg/kg, administration volume: 10 mL/kg.
Administration frequency and duration: single dose.
ICR mice were stratified by body weight and then randomly grouped into 3 mice per group, and fasted overnight before the experiment. After oral gavage administration, at 0, 0.033, 0.083, 0.5, 1, 2, 4, 6 and 8 hours, […] of blood was collected from the mandibular vein or saphenous vein of mice and put into sample tubes containing the anticoagulant sodium heparin, and the sample tube was placed in wet ice, centrifuged at 4 000 r·min^−1 for 10 minutes, and the plasma was separated and cryopreserved in a refrigerator at −80° C. for testing.
The blood concentration-time data of the compound of the present disclosure measured by gavage administration were substituted into Winnonlin 8.2 program to calculate the main pharmacokinetic parameters. Tmax and Cmax were measured values, AUC0-t and AUC0-∞ values were calculated by trapezoidal method, and t1/2 was calculated by the concentration point at the end of elimination phase via semi-logarithmic drawing method.

[5] = cultured CHO-K1/5-HT2A cells, calcium influx (FLIPR), antagonist mode vs agonist EC80, read-out: 5-HT2A IC50

CN1C(=O)CN2c3c1cccc3C1(C)CN(CCCC(=O)c3ccc(F)cc3)CCC21 (stereo not shown) [Embodiment 1, 8-(4-(4-fluorophenyl)-4-oxobutyl)-3,6b-dimethyl-6b,7,8,9,10,10a-hexahydro-1H-pyrido[3′,4′:4,5]pyrrolo[1,2,3-de]quinoxalin-2(3H)-one]
IC50 [1]: 662 nM | D2/5-HT2A ratio [1]: 13.09 | IC50 [2]: 50.5 nM | IC50 [3]: 3.72 nM

CN1C(=O)CN2c3c1cccc3[C@]1(C)CN(CCCC(=O)c3ccc(F)cc3)CC[C@H]21 [Embodiment 1-A, (6bR,10aS)-8-(4-(4-fluorophenyl)-4-oxobutyl)-3,6b-dimethyl-6b,7,8,9,10,10a-hexahydro-1H-pyrido[3′,4′:4,5]pyrrolo [1,2,3-de]quinoxalin-2(3H)-one]
IC50 [3, 5]: 0.78 nM | AUC(0-inf) [4]: 190 ng·h/mL | AUC(0-t) [4]: 155 ng·h/mL | Cmax [4]: 109 ng/mL | Tmax [4]: 10.2 min | half-life [4]: 188 min

CN1CCN2c3c(cccc31)[C@@H]1CN(CCCC(=O)c3ccc(F)cc3)CC[C@@H]12 [ITI-007, Lumateperone, reference compound]
IC50 [1]: 569 nM | D2/5-HT2A ratio [1]: 4.75 | IC50 ([2]; cryopreserved CHO-K1/5HT2A cells, calcium fluorescence (FLIPR), antagonist mode vs serotonin EC80, read-out: 5-HT2A IC50): 120 nM | IC50 [3, 5]: 3.35 nM | AUC(0-inf) [4]: 59.1 ng·h/mL | AUC(0-t) [4]: 39.3 ng·h/mL | Cmax [4]: 13.5 ng/mL | Tmax [4]: 16.8 min | half-life [4]: 300 min
